pEC50: −log10 of the molar value.
Each compound was assayed on HCV replicon (assay: HCV replicon replication assay (NPT ELISA) in Huh-7 replicon-containing cells). Settings: Hepatitis C virus, 72 h; inhibition of HCV replicon replication, Huh-7 HCV replicon-containing cells, three days.
Assay type: cell-based, Hepatitis C virus
Experimental: Compounds claimed herein are tested for the ability to inhibit viral replication of the Hepatitis C replicon in cultured cells in which the HCV replicon construct has been incorporated. The HCV replicon system was described by Bartenschlager, et. al (Science, 285, pp. 110-113 (1999)). The replicon system is predictive of in vivo anti-HCV activity; compounds that are active in humans uniformly evidence activity in the replicon assay.
In this assay HCV replicon containing cells are treated with different concentrations of the test compound to ascertain the ability of the test compound to suppress replication of the HCV replicon. As a positive control, HCV replicon-containing cells are treated with different concentrations of interferon alpha, a known inhibitor of HCV replication. The replicon assay system includes Neomycin Phosphotransferase (NPT) as a component of the replicon itself in order to detect the transcription of replicon gene products in the host cell. Cells in which the HCV replicon is actively replicating have high levels of NPT; the level of NPT is proportional to HCV replication. […] The NPT level of each sample is measured using a captured ELISA.
The HCV replicon contains, 5′-3′, the HCV-IRES, the neomycin phosphotransferase (neo) gene, the IRES of encephalomyocarditis virus, which directs translation of HCV sequences NS3 to NS5B, and the 3′-NTR. The sequence of the HCV replicon has been deposited in GenBank (Accession no. AJ242652).
The replicon is transfected into Huh-7 cells using standard methods such as electroporation.
HCV replicon-containing cells are rinsed with once PBS once; 2 mls of trypsin are then added. Cells are incubated at 37° C. in a 5% CO2 incubator for 3-5 minutes. 10 mls of complete medium is added to stop the reaction. Cells are blown gently, put into a 15 ml tube, and spun at 1200 rpm for four minutes. The trypsin/medium solution is removed and 5 mls of medium (500 ml DMEM (high glucose)) from BRL catalog #12430-054; 50 mls 10% FBS, 5% Geneticin G418 (50 mg/ml, BRL catalog #10131-035), 5 ml MEM non-essential amino acids (100×BRL #11140-050) and 5 ml pen-strep (BRL #15140-148) is added. The cells and media are mixed carefully
Cells are plated with screening medium (500 ml DMEM (BRL #21063-029), 50 ml FBS (BRL #10082-147) and 5 ml MEM non-essential amino acid (BRL #11140-050) at 6000-7500 cells/100 μl/well of 96 well plate (6-7.5×10^5 cells/10 ml/plate). Plates are placed into 37° C. 5% CO2 incubator overnight. 6D. Assay
The following morning, drugs (test compounds or interferon alpha) are diluted in 96 well U bottom plates with media or DMSO/media, depending on the final concentration chosen for screening. Generally for 6 concentrations of each test compounds ranging from 10 micromolar to 0.03 micromolar are applied. 100 μl of the test compound dilution is placed in wells of the 96 well plate containing the HCV replicon cells. Media without drug is added to some wells as a negative controls. DMSO is known to affect cell growth. Therefore, if drugs diluted in DMSO are used, all wells, including negative control (media only) and positive control (interferon alpha) wells, must contain the same concentration of DMSO, for single dose screening. The plates are incubated at 37° C. in a humidified 5% CO2 environment for three days.
On day four, the NTPII assay is quantitated. The medium is poured from the plates and the plates are washed once in 200 μl of PBS. The PBS is then decanted and the plates tapped in a paper towel to remove any remaining PBS. Cells are fixed in situ with 100 id/well of pre-cooled (−20° C.) methanol:acetone (1:1) and the plates are placed at −20° C. for 30 minutes.
The fixing solution is poured from the plates and the plates allowed to air-dry completely (approximately one hour). The appearance of the dried cell layer is recorded and the density of the cells in the toxic wells is scored with the naked eye. […]
`CCCC(NC(=O)C1C2CCCC2CN1C(=O)C(C)N1CCCCC1)C(=O)C(=O)NC1CC1` (centres unmarked) [Compound 35, N-(1-(cyclopropylamino)-1,2-dioxohexan-3-yl)-2-(2-(piperidin-1-yl)propanoyl)octahydrocyclopenta [c]pyrrole-1-carboxamide] was tested, and the pEC50 was greater than 4.00.
Compound `CCCC(NC(=O)C1C2CCCC2CN1C(=O)C(c1ccccc1)N1CCCCC1)C(=O)C(=O)NC1CC1` (centres unmarked) [Compound 36, N-(1-(cyclopropylamino)-1,2-dioxohexan-3-yl)-2-(2-phenyl-2-(piperidin-1-yl)acetyl)octahydrocyclopenta[c] pyrrole-1-carboxamide] has a pEC50 greater than 4.00.
For `CCCC(NC(=O)C1C2CCCC2CN1C(=O)C(C)N1CCCCCC1)C(=O)C(=O)NC1CC1` (centres unmarked) [Compound 37, 2-(2-(azepan-1-yl)propanoyl)-N-(1-(cyclopropylamino)-1,2-dioxohexan-3-yl)octahydrocyclopenta[c]pyrrole-1-carboxamide], the pEC50 was greater than 4.00.
`CCCC(NC(=O)C1C2CCCC2CN1C(=O)[C@@H](NC(=O)OC(C)(C)C)C(C)(C)C)C(=O)C(=O)NC1CC1` (stereo partly drawn) [Compound 39, tert-butyl(2S)-1-(1-(1-(cyclopropylamino)-1,2-dioxohexan-3-ylcarbamoyl)hexahydrocyclopenta[c]pyrrol-2(1H)-yl)-3,3-dimethyl-1-oxobutan-2-ylcarbamate] gave a pEC50 greater than 4.00.
`CCCC(NC(=O)C1C2CCCC2CN1C(=O)C(C)N1CCCC1)C(=O)C(=O)NC1CC1` (centres unmarked) [Compound 40, N-(1-(cyclopropylamino)-1,2-dioxohexan-3-yl)-2-(2-(pyrrolidin-1-yl)propanoyl)octahydrocyclopenta [c]pyrrole-1-carboxamide] showed a pEC50 greater than 4.00.
Compound `CCCC(NC(=O)C1C2CCCC2CN1C(=O)[C@@H](C)N1CCCCC1)C(=O)C(=O)NC1CC1` (stereo partly drawn) [Compound 42, N-(1-(cyclopropylamino)-1,2-dioxohexan-3-yl)-2-((R)-2-(piperidin-1-yl)propanoyl)octahydrocyclopenta [c]pyrrole-1-carboxamide] has a pEC50 of less than 4.00.
`CCCC(NC(=O)C1C2CCCC2CN1C(=O)[C@@H](C)N1CCCC1)C(=O)C(=O)NC1CC1` (stereo partly drawn) [Compound 43, N-(1-(cyclopropylamino)-1,2-dioxohexan-3-yl)-2-((R)-2-(pyrrolidin-1-yl)propanoyl)octahydrocyclopenta [c]pyrrole-1-carboxamide] gave a pEC50 of less than 4.00.
For `CCCC(NC(=O)[C@@H]1C[C@@H](OC(=O)N2CCc3ccccc3C2)CN1C(=O)C(C)N1CCCCC1)C(=O)C(=O)NC1CC1` (stereo partly drawn) [Compound 44, (3R,5S)-5-(1-(cyclopropylamino)-1,2-dioxohexan-3-ylcarbamoyl)-1-(2-(piperidin-1-yl)propanoyl)pyrrolidin-3-yl 3,4-dihydroisoquinoline-2(1H)-carboxylate], the pEC50 was greater than 4.00.
With `CCCC(NC(=O)C1C[C@@H](OC(=O)N2CCc3ccccc3C2)CN1C(=O)C(C)N1CCCC1)C(=O)C(=O)NC1CC1` (stereo partly drawn) [Compound 45, (3R,5S)-S-(1-(cyclopropylamino)-1,2-dioxohexan-3-ylcarbamoyl)-1-(2-(pyrrolidin-l-yl)propanoyl)pyrrolidin-3-yl 3,4-dihydroisoquinoline-2(1H)-carboxylate] the pEC50 was less than 4.00.
`CCCC(NC(=O)C1C2CCCC2CN1C(=O)[C@H](C)N1CCCCC1)C(=O)C(=O)NC1CC1` (stereo partly drawn) [Compound 46, N-(1-(cyclopropylamino)-1,2-dioxohexan-3-yl)-2-((S)-2-(piperidin-1-yl)propanoyl)octahydrocyclopenta [c]pyrrole-1-carboxamide] gave a pEC50 greater than 4.00.
Work on `CCCC(NC(=O)C1C2CCCC2CN1C(=O)[C@@H](N1CCCCC1)C(C)(C)C)C(=O)C(=O)NC1CC1` (stereo partly drawn) [Compound 47, N-(1-(cyclopropylamino)-1,2-dioxohexan-3-yl)-2-((S)-3,3-dimethyl-2-(piperidin-1-yl)butanoyl)octahydrocyclopenta [c]pyrrole-1-carboxamide] yielded a pEC50 greater than 4.00.
Work on `CCCC(NC(=O)C1C2CCCC2CN1C(=O)[C@H](C(C)C)N1CCCCC1)C(=O)C(=O)NC1CC1` (stereo partly drawn) [Compound 49, N-(1-(cyclopropylamino)-1,2-dioxohexan-3-yl)-2-((S)-3-mcthyl-2-(piperidin-1 - yl)bulanoyl)octahydrocyclopenta [c]pyrrole-1-carboxamide] yielded a pEC50 greater than 4.00.
Work on `C=CC1CC1(NC(=O)[C@@H]1C[C@@H](Oc2cc(-c3ccccc3)nc3cc(OC)ccc23)CN1C(=O)[C@@H](N1CCCCC1)C(C)(C)C)C(=O)OCC` (stereo partly drawn) [Compound 50, ethyl 1-((2S,4R)-1-((S)-3,3-dimethyl-2-(piperidin-1-yl)butanoyl)-4-(7-methoxy-2-phenylquinolin-4-yloxy)pyrrolidine-2-carboxamido)-2-vinylcyclopropanecarboxylate] yielded a pEC50 greater than 4.00.
`C=CC1CC1(NC(=O)[C@@H]1C[C@@H](Oc2cc(-c3ccccc3)nc3cc(OC)ccc23)CN1C(=O)[C@H](c1ccccc1)N1CCCCC1)C(=O)OCC` (stereo partly drawn) [Compound 51, ethyl 1-((2S,4R)-4-(7-methoxy-2-phenylquinolin-4-yloxy)-1-((S)-2-phenyl-2-(piperidin-1-yl)acetyl)pyrrolidine-2-carboxamido)-2-vinylcyclopropanecarboxylate] gave a pEC50 greater than 4.00.
With `C=CC1CC1(NC(=O)[C@@H]1C[C@@H](Oc2cc(-c3ccccc3)nc3cc(OC)ccc23)CN1C(=O)[C@H](C(C)C)N1CCCCC1)C(=O)OCC` (stereo partly drawn) [Compound 52, ethyl 1-((2S,4R)-4-(7-methoxy-2-phenylquinolin-4-yloxy)-1-((S)-3-methyl-2-(piperidin-1-yl)butanoyl)pyrrolidine-2-carboxamido)-2-vinylcyclopropanecarboxylate] the pEC50 was greater than 4.00.
With `C=CC1CC1(NC(=O)[C@@H]1C[C@@H](Oc2cc(-c3ccccc3)nc3cc(OC)ccc23)CN1C(=O)[C@H](C1CCCCC1)N1CCCCC1)C(=O)OCC` (stereo partly drawn) [Compound 53, ethyl 1-((2S,4R)-1-((S)-2-cyclohexyl-2-(piperidin-1-yl)acetyl)-4-(7-methoxy-2-phenylquinolin-4-yloxy)pyrrolidine-2-carboxamido)-2-vinylcyclopropanecarboxylate] the pEC50 was greater than 4.00.
`C=CC1CC1(NC(=O)[C@@H]1C[C@@H](Oc2cc(-c3ccccc3)nc3cc(OC)ccc23)CN1C(=O)[C@H](C)N1CCCCC1)C(=O)OCC` (stereo partly drawn) [Compound 54, ethyl 1-((2S,4R)-4-(7-methoxy-2-phenylquinolin-4-yloxy)-1-((S)-2-(piperidin-1-yl)propanoyl)pyrrolidine-2-carboxamido)-2-vinylcyclopropanecarboxylate] was tested, and the pEC50 was greater than 4.00.
`C=CC1CC1(NC(=O)[C@@H]1C[C@@H](Oc2cc(-c3ccccc3)nc3cc(OC)ccc23)CN1C(=O)[C@@H](N1CCCCC1)C(C)(C)C)C(=O)O` (stereo partly drawn) [Compound 55, 1-((2S,4R)-1-((S)-3,3-dimethyl-2-(piperidin-1-yl)butanoyl)-4-(7-methoxy-2-phenylquinolin-4-yloxy)pyrrolidine-2-carboxamido)-2-vinylcyclopropanecarboxylic acid] was tested, and the pEC50 was greater than 4.00.
Compound `C=CC1CC1(NC(=O)[C@@H]1C[C@@H](Oc2cc(-c3ccccc3)nc3cc(OC)ccc23)CN1C(=O)[C@H](c1ccccc1)N1CCCCC1)C(=O)O` (stereo partly drawn) [Compound 56, 1-((2S,4R)-4-(7-methoxy-2-phenylquinolin-4-yloxy)-1-((S)-2-phenyl-2-(piperidin-1-yl)acetyl)pyrrolidine-2-carboxamido)-2-vinylcyclopropanecarboxylic acid] has a pEC50 of less than 4.00.

Same assay, conditions: inhibition of HCV replicon replication, Huh-7 HCV replicon-containing cells, three days
`CCCC(NC(=O)C1C2CCCC2CN1C(=O)[C@@H](N1CCCCC1)C(C)(C)C)C(=O)C(=O)NC1CC1` (stereo partly drawn) [Compound 48, N-(1-(cyclopropylamino)-1,2-dioxohexan-3-yl)-2-((S)-3,3-dimethyl-2-(piperidin-1-yl)butanoyl)octahydrocyclopenta [c]pyrrole-1-carboxamide] showed a pEC50 greater than 4.00.

From patent US8435984B2, “Tertiary amine substituted peptides useful as inhibitors of HCV replication” (Achillion Pharmaceuticals, Inc., priority 2007, dated 2013)
